Experimental findings from patent publication US20260297070A1, “CYCLIC [COMPOUND LEFT OUT] WRN INHIBITORS” (Nimbus Wadjet, Inc., priority 2023, published 2026) are described below.

In the test the target is T1, human Werner helicase (WRN-BV08, Uniprot Q14191, amino acids 517-1235 with L1074F point mutation) (Homo sapiens, UniProt Q14191, L1074F).
T1 construct: Uniprot Q14191, amino acids 517-1235 with L1074F point mutation; TEV-cleavable 8×His (C, cleaved yes); made in house; host or cells: Sf9 insect cells (baculovirus)
T1 sequence (Q14191 with tags, fused parts or gaps L1074F limits assumed): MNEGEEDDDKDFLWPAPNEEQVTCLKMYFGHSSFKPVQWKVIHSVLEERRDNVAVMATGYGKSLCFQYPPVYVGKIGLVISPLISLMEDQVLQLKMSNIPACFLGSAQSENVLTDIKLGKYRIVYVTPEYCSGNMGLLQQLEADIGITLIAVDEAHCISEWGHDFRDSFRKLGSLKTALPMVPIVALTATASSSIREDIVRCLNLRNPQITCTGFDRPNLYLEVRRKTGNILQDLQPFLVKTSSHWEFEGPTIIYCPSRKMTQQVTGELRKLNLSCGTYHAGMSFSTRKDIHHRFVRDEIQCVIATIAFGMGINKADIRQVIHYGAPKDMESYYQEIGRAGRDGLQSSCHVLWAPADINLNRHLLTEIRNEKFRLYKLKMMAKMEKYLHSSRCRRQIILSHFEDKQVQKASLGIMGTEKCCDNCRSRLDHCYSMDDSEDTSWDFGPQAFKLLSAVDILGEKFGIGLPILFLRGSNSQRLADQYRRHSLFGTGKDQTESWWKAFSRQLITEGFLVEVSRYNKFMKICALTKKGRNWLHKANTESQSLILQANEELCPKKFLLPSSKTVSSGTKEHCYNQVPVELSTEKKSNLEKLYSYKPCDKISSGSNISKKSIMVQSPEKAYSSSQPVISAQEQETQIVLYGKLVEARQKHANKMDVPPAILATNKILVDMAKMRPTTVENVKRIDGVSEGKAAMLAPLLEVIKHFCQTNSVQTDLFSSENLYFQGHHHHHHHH
Nature of the test: WRN (BV08) ADP-Glo Assay. It counts as biochemical. The following applies: 0.15 nM WRN, 5 μM ATP, 0.1 nM DNA duplex, 15 min preincubation, 60 min at 25° C., pH 7.5, 1% DMSO; read-out: ADP-Glo_hWRN_IC50. An outline of the steps: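 Percent inhibition was normalised to DMSO (max) and 20 μM NSC-617145 (min) controls from ADP-Glo luminescence, and IC50 values came from a four-parameter fit. The reaction ran 60 min at 25 °C with 0.15 nM WRN, 5 μM ATP and 0.1 nM duplex DNA.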
Consider `C#CCCCC(=O)N1CCN(Cc2ccc(CN(C(=O)Cc3ccc(-n4cccc4)cc3F)C3C=CS(=O)(=O)C3)cc2)CC1` (centres unmarked) [I-211, N-(1,1-dioxo-2,3-dihydro-1lambda6-thiophen-3-yl)-2-[2-fluoro-4-(1H-pyrrol-1-yl)phenyl]-N-[(4-{[4-(hex-5-ynoyl)piperazin-1-yl]methyl}phenyl)methyl]acetamide], for which the IC50 lay within 0.5 to 5 µM. Take `CN(C)c1cc(CN(C(=O)Cc2ccc(-c3ccc(F)c(F)c3)cc2F)C2C=CS(=O)(=O)C2)ccn1` (centres unmarked) [I-99, N-{[2-(dimethylamino)pyridin-4-yl]methyl}-N-(1,1-dioxo-2,3-dihydro-1lambda6-thiophen-3-yl)-2-{3,3′,4′-trifluoro-[1,1′-biphenyl]-4-yl}acetamide]: the IC50 lay in the range of 0.5 to 5 µM. In the case of `COc1cc(CN(C(=O)Cc2ncc(-c3ccc(F)c(F)c3)cc2F)C2C=CS(=O)(=O)C2)ccn1` (centres unmarked) [I-129, 2-[5-(3,4-difluorophenyl)-3-fluoropyridin-2-yl]-N-(1,1-dioxo-2,3-dihydro-1lambda6-thiophen-3-yl)-N-[(2-methoxypyridin-4-yl)methyl]acetamide] it was 0.5 to 5 µM; in that of `Cc1cccn1-c1ccc(CC(=O)N(Cc2ccncn2)C2C=CS(=O)(=O)C2)c(F)c1` (centres unmarked) [I-181, N-(1,1-dioxo-2,3-dihydro-1lambda6-thiophen-3-yl)-2-[2-fluoro-4-(2-methyl-1H-pyrrol-1-yl)phenyl]-N-[(pyrimidin-4-yl)methyl]acetamide], 0.5 to 5 µM. To `COc1cc(CN(C(=O)C(O/C=C/S(C)(=O)=O)c2ccc(-c3ccc(F)c(F)c3)cc2F)[C@@H]2C=CS(=O)(=O)C2)ccn1` (single isomer, unassigned) [I-803, (2R*)-N-[(3R)-1,1-dioxo-2,3-dihydro-1lambda6-thiophen-3-yl]-2-{[(1E)-2-methanesulfonylethenyl]oxy}-N-[(2-methoxypyridin-4-yl)methyl]-2-{3,3′,4′-trifluoro-[1,1′-biphenyl]-4-yl}acetamide] belongs above 50 µM; to `O=C(C(C(=O)N(Cc1ccncc1)C1C=CS(=O)(=O)C1)c1ccc(-c2ccc(F)cc2)cc1)N1CCCC1` (centres unmarked) [I-125, N-(1,1-dioxo-2,3-dihydro-1lambda6-thiophen-3-yl)-2-{4′-fluoro-[1,1′-biphenyl]-4-yl}-3-oxo-N-[(pyridin-4-yl)methyl]-3-(pyrrolidin-1-yl)propanamide], 0.5 to 5 µM; to `O=C(Cc1ccc(C2CC2(F)F)cc1)N(Cc1ccncc1)C1C=CS(=O)(=O)C1` (centres unmarked) [I-273, 2-[4-(2,2-difluorocyclopropyl)phenyl]-N-(1,1-dioxo-2,3-dihydro-1lambda6-thiophen-3-yl)-N-[(pyridin-4-yl)methyl]acetamide], 5 to 10 µM. In the case of `COc1cc(CN(C(=O)C(c2ccc(-c3ccc(F)c(F)c3)cc2F)n2cc(C#N)cn2)[C@@H]2C=CS(=O)(=O)C2)ccn1` (single isomer, unassigned) [I-703, (2R*)-2-(4-cyano-1H-pyrazol-1-yl)-N-[(3R)-1,1-dioxo-2,3-dihydro-1lambda6-thiophen-3-yl]-N-[(2-methoxypyridin-4-yl)methyl]-2-{3,3′,4′-trifluoro-[1,1′-biphenyl]-4-yl}acetamide] it was below 0.5 µM.

Regarding `COc1cc(CN(C(=O)C(OC2COC2)c2ccc(-c3ccc(F)c(F)c3)cc2F)[C@@H]2C=CS(=O)(=O)C2)ccn1` (single isomer, unassigned) [I-740, (2R*)-N-[(3R)-1,1-dioxo-2,3-dihydro-1lambda6-thiophen-3-yl]-N-[(2-methoxypyridin-4-yl)methyl]-2-(oxetan-3-yloxy)-2-{3,3′,4′-trifluoro-[1,1′-biphenyl]-4-yl}acetamide], the IC50 lay within 0.5 to 5 µM.

Turning to `O=C(Cc1ccc(S(F)(F)(F)(F)F)cc1)N(CCc1nccs1)C1C=CS(=O)(=O)C1` (centres unmarked) [I-679, N-(1,1-dioxo-2,3-dihydro-1lambda6-thiophen-3-yl)-2-[4-(pentafluoro-lambda6-sulfanyl)phenyl]-N-[2-(1,3-thiazol-2-yl)ethyl]acetamide], the IC50 lay within 0.5 to 5 µM.

For the compound `O=C(CCc1nc(-c2ccccc2F)no1)N(Cc1ccncc1)C1C=CS(=O)(=O)C1` (centres unmarked) [I-496, N-(1,1-dioxo-2,3-dihydro-1lambda6-thiophen-3-yl)-3-[3-(2-fluorophenyl)-1,2,4-oxadiazol-5-yl]-N-[(pyridin-4-yl)methyl]propanamide], the IC50 was above 50 µM. In the case of `CN(C)C(=O)C(C(=O)N(Cc1ccnc(C(C)(C)O)c1)C1C=CS(=O)(=O)C1)c1ccc(-c2ccc(F)cc2)cc1F` (single isomer, unassigned) [I-340, (2R**)-2-{3,4′-difluoro-[1,1′-biphenyl]-4-yl}-N-[(3R*)-1,1-dioxo-2,3-dihydro-1lambda6-thiophen-3-yl]-N-{[2-(2-hydroxypropan-2-yl)pyridin-4-yl]methyl}-N′,N′-dimethylpropanediamide] it was 10 to 50 µM. In the case of `COc1cc(CN(C(=O)Cc2ccc(S(F)(F)(F)(F)F)cc2)C2C=CS(=O)(=O)C2)cc(OC)n1` (centres unmarked) [I-684, N-[(2,6-dimethoxypyridin-4-yl)methyl]-N-(1,1-dioxo-2,3-dihydro-1lambda6-thiophen-3-yl)-2-[4-(pentafluoro-lambda6-sulfanyl)phenyl]acetamide] it was 0.5 to 5 µM; in that of `COc1cc(CN(C(=O)Cc2ccc(C3(C)CC3)cc2F)C2C=CS(=O)(=O)C2)ccn1` (centres unmarked) [I-97, N-(1,1-dioxo-2,3-dihydro-1lambda6-thiophen-3-yl)-2-[2-fluoro-4-(1-methylcyclopropyl)phenyl]-N-[(2-methoxypyridin-4-yl)methyl]acetamide], 0.5 to 5 µM. In the case of `Cc1cccn1-c1ccc(CC(=O)N(Cc2ccc(Br)cc2)C2C=CS(=O)(=O)C2)c(F)c1` (centres unmarked) [I-100, N-[(4-bromophenyl)methyl]-N-(1,1-dioxo-2,3-dihydro-1lambda6-thiophen-3-yl)-2-[2-fluoro-4-(2-methyl-1H-pyrrol-1-yl)phenyl]acetamide] it was 0.5 to 5 µM; in that of `CNc1cc(CN(C(=O)Cc2ccc(-n3cccc3C)cc2F)C2C=CS(=O)(=O)C2)ccn1` (centres unmarked) [I-142, N-(1,1-dioxo-2,3-dihydro-1lambda6-thiophen-3-yl)-2-[2-fluoro-4-(2-methyl-1H-pyrrol-1-yl)phenyl]-N-{[2-(methylamino)pyridin-4-yl]methyl}acetamide], 0.5 to 5 µM. Turning to `CN(CCc1ccncc1)C(=O)c1ccc(CN(C(=O)Cc2ccc(-c3ccc(F)c(F)c3)cc2F)C2C=CS(=O)(=O)C2)cc1` (centres unmarked) [I-791, 4-{[N-(1,1-dioxo-2,3-dihydro-1lambda6-thiophen-3-yl)-2-{3,3′,4′-trifluoro-[1,1′-biphenyl]-4-yl}acetamido]methyl}-N-methyl-N-[2-(pyridin-4-yl)ethyl]benzamide], the IC50 lay within 0.5 to 5 µM. To `Cc1nc(CN(C(=O)Cc2ccc(-n3cccc3)cc2)C2C=CS(=O)(=O)C2)cs1` (centres unmarked) [I-335, N-(1,1-dioxo-2,3-dihydro-1lambda6-thiophen-3-yl)-N-[(2-methyl-1,3-thiazol-4-yl)methyl]-2-[4-(1H-pyrrol-1-yl)phenyl]acetamide] belongs 10 to 50 µM. In the case of `Cn1cc(CCC(=O)N(Cc2ccncc2)C2C=CS(=O)(=O)C2)c2ccc(Br)cc21` (centres unmarked) [I-565, 3-(6-bromo-1-methyl-1H-indol-3-yl)-N-(1,1-dioxo-2,3-dihydro-1lambda6-thiophen-3-yl)-N-[(pyridin-4-yl)methyl]propanamide] it was above 50 µM. Consider `COc1cc(CN(C(=O)C(OCCS(C)(=O)=O)c2ccc(-c3ccc(F)c(F)c3)cc2F)[C@@H]2C=CS(=O)(=O)C2)ccn1` (single isomer, unassigned) [I-702, (2R*)-N-[(3R)-1,1-dioxo-2,3-dihydro-1lambda6-thiophen-3-yl]-2-(2-methanesulfonylethoxy)-N-[(2-methoxypyridin-4-yl)methyl]-2-{3,3′,4′-trifluoro-[1,1′-biphenyl]-4-yl}acetamide], for which the IC50 lay in the range of 0.5 to 5 µM. In the case of `COc1cc(CN(C(=O)Cn2cc(-c3cc(F)c(F)c(F)c3)cn2)[C@@H]2C=CS(=O)(=O)C2)ccn1` [I-764, N-[(3R)-1,1-dioxo-2,3-dihydro-1lambda6-thiophen-3-yl]-N-[(2-methoxypyridin-4-yl)methyl]-2-[4-(3,4,5-trifluorophenyl)-1H-pyrazol-1-yl]acetamide] it was below 0.5 µM; in that of `CC(C)(O)c1cc(CN(C(=O)Cn2cc(-c3ccc(F)c(F)c3F)cn2)C2C=CS(=O)(=O)C2)ccn1` (single isomer, unassigned) [I-704], below 0.5 µM; in that of `COc1cc(CN(C(=O)Cn2cc(-c3ccc(Cl)cc3)cn2)C2C=CS(=O)(=O)C2)ccn1` (centres unmarked) [I-85, 2-[4-(4-chlorophenyl)-1H-pyrazol-1-yl]-N-(1,1-dioxo-2,3-dihydro-1lambda6-thiophen-3-yl)-N-[(2-methoxypyridin-4-yl)methyl]acetamide], below 0.5 µM.

As to `CC(C)(O)COc1cc(CN(C(=O)Cc2ccc(S(F)(F)(F)(F)F)cc2)C2C=CS(=O)(=O)C2)ccn1` (centres unmarked) [I-768, N-(1,1-dioxo-2,3-dihydro-1lambda6-thiophen-3-yl)-N-{[2-(2-hydroxy-2-methylpropoxy)pyridin-4-yl]methyl}-2-[4-(pentafluoro-lambda6-sulfanyl)phenyl]acetamide], the IC50 was below 0.5 µM. For the compound `O=C(Cc1ccc(-n2cccc2)cc1)N(Cc1cc(F)cc(F)c1)C1C=CS(=O)(=O)C1` (centres unmarked) [I-522, N-[(3,5-difluorophenyl)methyl]-N-(1,1-dioxo-2,3-dihydro-1lambda6-thiophen-3-yl)-2-[4-(1H-pyrrol-1-yl)phenyl]acetamide], the IC50 is above 50 µM.

In the case of `O=C(Cc1ccc(-n2cccc2)cc1)N(Cc1cccnc1)C1C=CS(=O)(=O)C1` (centres unmarked) [I-358, N-(1,1-dioxo-2,3-dihydro-1lambda6-thiophen-3-yl)-N-[(pyridin-3-yl)methyl]-2-[4-(1H-pyrrol-1-yl)phenyl]acetamide], the IC50 was in the range of 10 to 50 µM.
